Source: patent US20230009626A1 (ICHNOS SCIENCES S.A., priority 2018, published 2023)

Target: HPK1 (MAP4K1) (Homo sapiens, UniProt Q92918)
Test: FRET Assay for HPK1 (MAP4K1): one step binding assay, displacement of labeled tracer
Conditions: for inhibition at 1 µM: 1 μM compound; for inhibition at 1 µM / inhibition at 10 µM: FRET ratio 665/620, percent of control; for inhibition at 10 µM: 10 μM compound; for IC50: dose response curve, nonlinear regression
In short: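 TR-FRET tracer-displacement binding assay. GST-tagged HPK1 (10 nM) and Eu-anti-GST antibody (4 nM) were pre-incubated with compound on ice for 15 min in 50 mM HEPES pH 7.5, 10 mM MgCl2, 1 mM EGTA, 0.01% Brij-35 (3% DMSO final). Kinase Tracer 222 (20 nM) was then added for 1 h at room temperature. IC50 came from nonlinear regression of percent of control; percent inhibition was also given at 1.0 and 10.0 μM.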

Sequence of HPK1 (MAP4K1) (Q92918 whole entry): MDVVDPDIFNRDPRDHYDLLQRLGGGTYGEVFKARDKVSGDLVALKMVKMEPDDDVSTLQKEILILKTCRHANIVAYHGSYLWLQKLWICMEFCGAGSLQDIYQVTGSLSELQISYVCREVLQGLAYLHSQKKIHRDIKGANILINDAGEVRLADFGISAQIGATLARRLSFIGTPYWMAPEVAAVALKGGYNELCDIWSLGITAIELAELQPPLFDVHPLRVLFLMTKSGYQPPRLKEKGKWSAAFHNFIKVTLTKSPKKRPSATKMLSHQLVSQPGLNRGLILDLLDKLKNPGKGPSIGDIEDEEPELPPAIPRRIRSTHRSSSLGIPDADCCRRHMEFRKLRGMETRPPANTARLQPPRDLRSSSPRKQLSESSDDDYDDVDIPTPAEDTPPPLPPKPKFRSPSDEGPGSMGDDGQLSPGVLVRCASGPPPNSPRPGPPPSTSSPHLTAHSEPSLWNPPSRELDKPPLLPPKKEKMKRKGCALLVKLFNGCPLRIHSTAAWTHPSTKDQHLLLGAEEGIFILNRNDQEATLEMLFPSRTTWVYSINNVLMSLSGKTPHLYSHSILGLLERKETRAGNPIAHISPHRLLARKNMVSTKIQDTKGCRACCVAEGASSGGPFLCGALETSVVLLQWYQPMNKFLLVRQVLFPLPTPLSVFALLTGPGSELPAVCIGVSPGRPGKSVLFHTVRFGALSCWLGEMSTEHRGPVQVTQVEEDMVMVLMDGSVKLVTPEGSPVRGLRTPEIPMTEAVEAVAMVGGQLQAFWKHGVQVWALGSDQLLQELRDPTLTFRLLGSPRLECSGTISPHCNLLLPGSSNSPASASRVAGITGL

| SMILES | inhibition at 1 µM [%] | inhibition at 10 µM [%] | IC50 [nM] |
| --- | --- | --- | --- |
| C/C(Nc1ccn(CC2(O)CC2)n1)=C1/C(=O)Nc2cnc(-c3cnccc3C)cc21 [Example 168, (Z)-3-(1-((1-((1-Hydroxycyclopropyl)methyl)-1H-pyrazol-3-yl)amino)ethylidene)-5-(4-methylpyridin-3-yl)-1H-pyrrolo[2,3-c]pyridin-2(3H)-one] | 67.6 | 76.7 | < 50 |
| C/C(Nc1ccn(CC[C@@H](C)O)n1)=C1/C(=O)Nc2cnc(-c3cnccc3C)cc21 [Example 169, (R,Z)-3-(1-((1-(3-Hydroxybutyl)-1H-pyrazol-3-yl)amino)ethylidene)-5-(4-methylpyridin-3-yl)-1H-pyrrolo[2,3-c]pyridin-2(3H)-one] | 71.4 | 84.3 | < 50 |
| C/C(Nc1cc(C)n(CC(F)F)n1)=C1/C(=O)Nc2cnc(-c3cnccc3C)cc21 [Example 170, (Z)-3-(1-((1-(2,2-Difluoroethyl)-5-methyl-1H-pyrazol-3-yl)amino)ethylidene)-5-(4-methylpyridin-3-yl)-1H-pyrrolo[2,3-c]pyridin-2(3H)-one] | 70.1 | 70.3 | < 50 |
| COc1cccc(F)c1-c1cc2c(cn1)NC(=O)/C2=C(/C)Nc1cnn([C@H](C)C#N)c1 [Example 171, (R,Z)-2-(4-((1-(5-(2-Fluoro-6-methoxyphenyl)-2-oxo-1H-pyrrolo[2,3-c]pyridin-3(2H)-ylidene)ethyl)amino)-1H-pyrazol-1-yl)propanenitrile] | 63.4 | 77 | 50 to 100 |
| COc1cccc(F)c1-c1cc2c(cn1)NC(=O)/C2=C(/C)Nc1cnn([C@@H](C)C#N)c1 [Example 172, (S,Z)-2-(4-((1-(5-(2-Fluoro-6-methoxyphenyl)-2-oxo-1H-pyrrolo[2,3-c]pyridin-3(2H)-ylidene)ethyl)amino)-1H-pyrazol-1-yl)propanenitrile] | 79.2 | 80.5 | < 50 |
| COc1cccc(F)c1-c1cc2c(cn1)NC(=O)/C2=C(/C)Nc1cnn(C[C@H](C)O)c1 [Example 173, (S,Z)-5-(2-Fluoro-6-methoxyphenyl)-3-(1-((1-(2-hydroxypropyl)-1H-pyrazol-4-yl)amino)ethylidene)-1H-pyrrolo[2,3-c]pyridin-2(3H)-one] | 66.8 | 77.4 | < 50 |
| C/C(Nc1cnn(CC2(O)CC2)c1)=C1/C(=O)Nc2cnc(-c3cnccc3C)cc21 [Example 174, (Z)-3-(1-((1-((1-Hydroxycyclopropyl)methyl)-1H-pyrazol-4-yl)amino)ethylidene)-5-(4-methylpyridin-3-yl)-1H-pyrrolo[2,3-c]pyridin-2(3H)-one] | 55.1 | 64.8 | < 50 |
| C/C(Nc1nn(C)c2ccccc12)=C1/C(=O)Nc2cnc(-c3cnccc3C)cc21 [Example 175, (Z)-3-(1-((1-Methyl-1H-indazol-3-yl)amino)ethylidene)-5-(4-methylpyridin-3-yl)-1H-pyrrolo[2,3-c]pyridin-2(3H)-one] | 72.6 | – | < 50 |
| C/C(Nc1cnn(CC[C@H](C)O)c1)=C1/C(=O)Nc2cnc(-c3cnccc3C)cc21 [Example 176, (S,Z)-3-(1-((1-(3-Hydroxybutyl)-1H-pyrazol-4-yl)amino)ethylidene)-5-(4-methylpyridin-3-yl)-1H-pyrrolo[2,3-c]pyridin-2(3H)-one] | 75.4 | 62.3 | < 50 |
| C/C(Nc1ccc(OC2CCN(C(=O)C3CC3)CC2)nc1)=C1/C(=O)Nc2cnc(-c3cnccc3C)cc21 [Example 177, (Z)-3-(1-((6-((1-(Cyclopropanecarbonyl)piperidin-4-yl)oxy)pyridin-3-yl)amino)ethylidene)-5-(4-methylpyridin-3-yl)-1H-pyrrolo[2,3-c]pyridin-2(3H)-one] | 69.4 | 66.6 | < 50 |
| C/C(Nc1ncc(C)s1)=C1/C(=O)Nc2cnc(-c3cnccc3C)cc21 [Example 178, (Z)-5-(4-Methylpyridin-3-yl)-3-(1-((5-methylthiazol-2-yl)amino)ethylidene)-1H-pyrrolo[2,3-c]pyridin-2(3H)-one] | 68 | 77.8 | < 50 |
| C/C(Nc1cc(C)[nH]n1)=C1/C(=O)Nc2cnc(-c3cnccc3C)cc21 [Example 179, (Z)-3-(1-((5-Methyl-1H-pyrazol-3-yl)amino)ethylidene)-5-(4-methylpyridin-3-yl)-1H-pyrrolo[2,3-c]pyridin-2(3H)-one] | 66.9 | 77.6 | < 50 |
| CCS(=O)(=O)n1nc(N/C(C)=C2\C(=O)Nc3cnc(-c4cnccc4C)cc32)cc1C [Example 180, (Z)-3-(1-((1-(Ethylsulfonyl)-5-methyl-1H-pyrazol-3-yl)amino)ethylidene)-5-(4-methylpyridin-3-yl)-1H-pyrrolo[2,3-c]pyridin-2(3H)-one] | 73 | 76.2 | < 50 |
| C/C(Nc1cc(C)n(CC(C)(C)O)n1)=C1/C(=O)Nc2cnc(-c3cnccc3C)cc21 [Example 181, (Z)-3-(1-((1-(2-Hydroxy-2-methylpropyl)-5-methyl-1H-pyrazol-3-yl)amino)ethylidene)-5-(4-methylpyridin-3-yl)-1H-pyrrolo[2,3-c]pyridin-2(3H)-one] | 76.8 | 80.8 | < 50 |
| CCn1nc(N/C(C)=C2\C(=O)Nc3cnc(-c4cnccc4C)cc32)cc1C [Example 182, (Z)-3-(1-((1-Ethyl-5-methyl-1H-pyrazol-3-yl)amino)ethylidene)-5-(4-methylpyridin-3-yl)-1H-pyrrolo[2,3-c]pyridin-2(3H)-one] | 78.8 | 73 | < 50 |
| C/C(Nc1cc(C)n(CCC(C)(C)O)n1)=C1/C(=O)Nc2cnc(-c3cnccc3C)cc21 [Example 183, (Z)-3-(1-((1-(3-Hydroxy-3-methylbutyl)-5-methyl-1H-pyrazol-3-yl)amino)ethylidene)-5-(4-methylpyridin-3-yl)-1H-pyrrolo[2,3-c]pyridin-2(3H)-one] | 72.5 | 79.5 | < 50 |
| C/C(Nc1cc(C)n(C[C@H](C)O)n1)=C1/C(=O)Nc2cnc(-c3cnccc3C)cc21 [Example 184, (S,Z)-3-(1-((1-(2-Hydroxypropyl)-5-methyl-1H-pyrazol-3-yl)amino)ethylidene)-5-(4-methylpyridin-3-yl)-1H-pyrrolo[2,3-c]pyridin-2(3H)-one] | 70.3 | 75.2 | < 50 |
| C/C(Nc1cc(C)n(C(F)F)n1)=C1/C(=O)Nc2cnc(-c3cnccc3C)cc21 [Example 185, (Z)-3-(1-((1-(Difluoromethyl)-5-methyl-1H-pyrazol-3-yl)amino)ethylidene)-5-(4-methylpyridin-3-yl)-1H-pyrrolo[2,3-c]pyridin-2(3H)-one] | 73.2 | 73.9 | < 50 |
| C/C(Nc1cc(C)n(CC(C)C)n1)=C1/C(=O)Nc2cnc(-c3cnccc3C)cc21 [Example 186, (Z)-3-(1-((1-Isobutyl-5-methyl-1H-pyrazol-3-yl)amino)ethylidene)-5-(4-methylpyridin-3-yl)-1H-pyrrolo[2,3-c]pyridin-2(3H)-one] | 70.9 | 72.2 | < 50 |
| C/C(Nc1cnn(C)c1)=C1/C(=O)Nc2cnc(-c3cc(C#N)ccc3C)cc21 [Example 187, (Z)-4-Methyl-3-(3-(1-((1-methyl-1H-pyrazol-4-yl)amino)ethylidene)-2-oxo-2,3-dihydro-1H-pyrrolo[2,3-c]pyridin-5-yl)benzonitrile] | 66.4 | 19.6 | – |
| C/C(Nc1cc(C)n(C[C@@H](C)O)n1)=C1/C(=O)Nc2cnc(-c3cnccc3C)cc21 [Example 188, (R,Z)-3-(1-((1-(2-Hydroxypropyl)-5-methyl 1H-pyrazol-3-yl)amino)ethylidene)-5-(4-methylpyridin-3-yl)-1H-pyrrolo[2,3-c]pyridin-2(3H)-one] | 71 | 76 | < 50 |
| C/C(Nc1cc(C)n(CC2CC2)n1)=C1/C(=O)Nc2cnc(-c3cnccc3C)cc21 [Example 189, (Z)-3-(1-((1-(cyclopropylmethyl)-5-methyl-1H-pyrazol-3-yl)amino)ethylidene)-5-(4-methylpyridin-3-yl)-1H-pyrrolo[2,3-c]pyridin-2(3H)-one] | 73.5 | 76.9 | < 50 |
| C/C(Nc1cc(C)n(CC[C@@H](C)O)n1)=C1/C(=O)Nc2cnc(-c3cnccc3C)cc21 [Example 190, (R,Z)-3-(1-((1-(3-Hydroxybutyl)-5-methyl-1H-pyrazol-3-yl)amino)ethylidene)-5-(4-methylpyridin-3-yl)-1H-pyrrolo[2,3-c]pyridin-2(3H)-one] | 52.4 | 68.6 | > 500 |
| C/C(Nc1cc(C)n(C)n1)=C1/C(=O)Nc2cnc(-c3c(C)cccc3F)cc21 [Example 191, (Z)-3-(1-((1,5-dimethyl-1H-pyrazol-3-yl)amino)ethylidene)-5-(2-fluoro-6-methylphenyl)-1H-pyrrolo[2,3-c]pyridin-2(3H)-one] | 69.6 | 82.2 | < 50 |
| C/C(Nc1cc2n(n1)CCOC2)=C1/C(=O)Nc2cnc(-c3c(C)cccc3F)cc21 [Example 192, (Z)-3-(1-((6,7-Dihydro-4H-pyrazolo[5,1-c][1,4]oxazin-2-yl)amino)ethylidene)-5-(2-fluoro-6-methylphenyl)-1H-pyrrolo[2,3-c]pyridin-2(3H)-one] | 62.1 | 68.3 | < 50 |
